Test system: HNECs
Experiment: Membrane fluidity of HNECs by FRAP
Type: cell-based, human
Conditions: Ge 50 µg·mL^−1 alone (control), 3 h
Procedure: The cells were seeded on cell plate at a density of 5×10^4 cells·cm^−2. The above formulation groups were added and the plates were incubated for 3 h at 37 °C in a 5% CO2 incubator. Cells were rinsed with HBSS and stained with NBD-C6-HPC at 2 µg·mL^−1 for 30 min.
A method of fluorescence recovery after photobleaching (FRAP) was used here. After the definition of line scanning position, length and photobleaching position, the monolayer was visualized by a Confocal Laser Scanning Microscope under the following conditions: excitation wavelength of 488 nm, emission wavelength of 530 nm, laser power for fluorescence bleaching of 100%, bleaching time of 0.7 s, scanning frequency of 1.65 s and the total scanning time of 100 s. The fluorescence intensity time-variation at the photobleaching position was recorded and image formation was obtained by confocal tomoscanning.
The membrane fluidity was represented by fluorescence recovery rate (R) which was calculated with the following equation (4): [drawing 4] where F0 is the instant fluorescence value after photobleaching, F1 is the fluorescence value before photobleaching and F2 is the fluorescence recovery value after photobleaching.

COC(=O)C1=CO[C@@H](O[C@@H]2O[C@H](CO)[C@@H](O)[C@H](O)[C@H]2O)[C@@H]2C(CO)=CC[C@H]12 [geniposide, Geniposide]
Fluorescence recovery rate R (%)±SD: 33.08±1.74%

Reference: article PMC4081582, “Enhancing Effect of Borneol and Muscone on Geniposide Transport across the Human Nasal Epithelial Cell Monolayer” (PLoS ONE, 2014)
